Test results from patent US20240343733A1, “COMPOUNDS FOR TARGETING DEGRADATION OF IRAK4 PROTEINS” (BIOGEN MA INC., priority 2021, published 2024).

Biological target: T1, IRAK4 (Homo sapiens, UniProt Q9NWZ3)
T1 construct: 293Tcells expressing HiBiT-tagged IRAK4 were then added into 384-well plates
T1 sequence (Q9NWZ3 1-460): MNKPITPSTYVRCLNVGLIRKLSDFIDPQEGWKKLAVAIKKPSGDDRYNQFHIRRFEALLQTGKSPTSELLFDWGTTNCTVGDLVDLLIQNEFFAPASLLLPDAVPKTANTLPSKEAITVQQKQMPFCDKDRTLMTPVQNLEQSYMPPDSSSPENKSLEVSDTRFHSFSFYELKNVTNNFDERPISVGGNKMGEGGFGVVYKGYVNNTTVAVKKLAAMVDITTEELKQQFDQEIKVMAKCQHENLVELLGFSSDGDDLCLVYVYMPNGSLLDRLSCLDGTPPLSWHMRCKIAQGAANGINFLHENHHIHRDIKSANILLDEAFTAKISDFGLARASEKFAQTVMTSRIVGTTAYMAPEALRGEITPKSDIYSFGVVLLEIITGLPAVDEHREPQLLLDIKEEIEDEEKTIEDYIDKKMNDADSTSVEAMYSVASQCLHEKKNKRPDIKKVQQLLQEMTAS
Test: IRAK4 Degradation Assay, HiBiT Method
Assay type: cell-based
Conditions: 293T cells expressing HiBiT-tagged IRAK4, 6 hours
Summary of the method: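 293T cells with HiBiT knocked in at the C-terminus of endogenous IRAK4, 10,000 per well, treated 6 h at 37 °C with an 11-point half-log series ([…]), in duplicate. Remaining IRAK4 read by Nano-Glo HiBiT lytic luminescence against DMSO-only and media-only controls.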

Q: Which DC50 does the source give for `CC(C)Oc1cc2nn([C@H]3CC[C@H](CN4CCC(c5ccc(O[C@H]6CCC(=O)NC6=O)cc5)CC4)CC3)cc2cc1C(=O)Nc1cccn(C2CC2)c1=O` (single isomer, unassigned) [Example 142] here?
A: Its DC50 is < 10 nM.

Q: For `CC(C)Oc1cc2nc([C@H]3CC[C@H](CN4CCC(c5ccc(C6CCC(=O)NC6=O)cc5F)CC4)CC3)cn2cc1C(=O)Nc1cccc(C(F)F)n1` (stereo partly drawn) [Example 23, N-[6-(difluoromethyl)-2-pyridyl]-2-[4-[[4-[4-(2,6-dioxo-3-piperidyl)-2-fluoro-phenyl]-1-piperidyl]methyl]cyclohexyl]-7-isopropoxy-imidazo[1,2-a]pyridine-6-carboxamide], which DC50 is on record?
A: Its DC50 is 10 to 100 nM.

Q: How did the DC50 turn out when `CC(C)Oc1cc2nc([C@H]3CC[C@H](CN4CC5(CCN(c6ncc(N7CCC(=O)NC7=O)cc6F)CC5)C4)CC3)cn2cc1C(=O)Nc1cccn([C@H]2C[C@H]2F)c1=O` [Example 179, 2-((1r,4S)-4-((7-(5-(2,4-dioxotetrahydropyrimidin-1(2H)-yl)-3-fluoropyridin-2-yl)-2,7-diazaspiro[3.5]nonan-2-yl)methyl)cyclohexyl)-N-(1-((1S,2R)-2-fluorocyclopropyl)-2-oxo-1,2-dihydropyridin-3-yl)-7-isopropoxyimidazo[1,2-a]pyridine-6-carboxamide] was run?
A: The DC50 was < 10 nM.

Q: With `CC(C)Oc1cc2nc([C@H]3CC[C@H](CN4CCN(c5ccc(C6CCC(=O)NC6=O)cn5)CC4)CC3)cn2cc1C(=O)Nc1cccn([C@H]2C[C@H]2F)c1=O` (stereo partly drawn) [Example 180, 2-((1r,4S)-4-((4-(5-(2,6-dioxopiperidin-3-yl)pyridin-2-yl)piperazin-1-yl)methyl)cyclohexyl)-N-(1-((1S,2R)-2-fluorocyclopropyl)-2-oxo-1,2-dihydropyridin-3-yl)-7-isopropoxyimidazo[1,2-a]pyridine-6-carboxamide] as the compound, how does the DC50 read?
A: Its DC50 is 10 to 100 nM.

Q: With `CC(C)Oc1cc2nc([C@H]3CC[C@H](CN4CC5(CCN(c6ncc(N7CCC(=O)NC7=O)cc6F)CC5)C4)CC3)cn2cc1C(=O)Nc1cnn2cccnc12` [Example 181, 2-((1r,4r)-4-((7-(5-(2,4-dioxotetrahydropyrimidin-1(2H)-yl)-3-fluoropyridin-2-yl)-2,7-diazaspiro[3.5]nonan-2-yl)methyl)cyclohexyl)-7-isopropoxy-N-(pyrazolo[1,5-a]pyrimidin-3-yl)imidazo[1,2-a]pyridine-6-carboxamide] as the compound, how does the DC50 read?
A: Its DC50 is < 10 nM.

Q: `CC(C)Oc1cc2nc([C@H]3CC[C@H](C(=O)NC4CCN(c5ccc(C6CCC(=O)NC6=O)cn5)CC4)CC3)cn2cc1C(=O)Nc1cnn2cccnc12` (stereo partly drawn) [Example 182, 2-((1r,4r)-4-((1-(5-(2,6-dioxopiperidin-3-yl)pyridin-2-yl)piperidin-4-yl)carbamoyl)cyclohexyl)-7-isopropoxy-N-(pyrazolo[1,5-a]pyrimidin-3-yl)imidazo[,2-a]pyridine-6-carboxamide] was tested. Which DC50 did it give?
A: The DC50 was < 10 nM.

Q: Which DC50 does the source give for `CC(C)Oc1cc2nc(C3CCN(C(=O)CC4CC5(C4)CN(c4ccc(C6CCC(=O)NC6=O)cn4)C5)CC3)cn2cc1C(=O)Nc1cccn([C@H]2C[C@H]2F)c1=O` (stereo partly drawn) [Example 183, 2-(1-(2-(2-(5-(2,6-dioxopiperidin-3-yl)pyridin-2-yl)-2-azaspiro[3.3]heptan-6-yl)acetyl)piperidin-4-yl)-N-(1-((1S,2R)-2-fluorocyclopropyl)-2-oxo-1,2-dihydropyridin-3-yl)-7-isopropoxyimidazo[1,2-a]pyridine-6-carboxamide] here?
A: The DC50 was < 10 nM.

Q: Which DC50 does the source give for `CC(C)Oc1cc2nn([C@H]3CC[C@H](CN4CC[C@H](c5cc6c(cc5F)c(N5CCC(=O)NC5=O)nn6C)[C@H](O)C4)CC3)cc2cc1C(=O)Nc1cccn([C@H]2C[C@H]2F)c1=O` [Example 184, 2-((1S,4S)-4-(((3S,4R)-4-(3-(2,4-dioxotetrahydropyrimidin-1(2H)-yl)-5-fluoro-1-methyl-1H-indazol-6-yl)-3-hydroxypiperidin-1-yl)methyl)cyclohexyl)-N-(1-((1S,2R)-2-fluorocyclopropyl)-2-oxo-1,2-dihydropyridin-3-yl)-6-isopropoxy-2H-indazole-5-carboxamide] here?
A: Its DC50 is < 10 nM.

Q: For `CC(C)Oc1cc2nc(C3CCC(CN4CC[C@H](c5cc6c(cc5F)c(N5CCC(=O)NC5=O)nn6C)[C@H](O)C4)CC3)cn2cc1C(=O)Nc1cccn([C@H]2C[C@H]2F)c1=O` (stereo partly drawn) [Example 185, 2-((1S,4S)-4-(((3S,4R)-4-(3-(2,4-dioxotetrahydropyrimidin-1(2H)-yl)-5-fluoro-1-methyl-1H-indazol-6-yl)-3-hydroxypiperidin-1-yl)methyl)cyclohexyl)-N-(1-((1S,2R)-2-fluorocyclopropyl)-2-oxo-1,2-dihydropyridin-3-yl)-7-isopropoxyimidazo[1,2-a]pyridine-6-carboxamide], which DC50 is on record?
A: The DC50 was < 10 nM.

Q: Which DC50 does the source give for `CC(C)Oc1nc2nc(C3CCN(C(=O)CC4CCN(c5ncc(C6CCC(=O)NC6=O)cc5F)CC4)CC3)cn2cc1C(=O)Nc1cccn([C@H]2C[C@H]2F)c1=O` (stereo partly drawn) [Example 186, 2-(1-(2-(1-(5-(2,6-dioxopiperidin-3-yl)-3-fluoropyridin-2-yl)piperidin-4-yl)acetyl)piperidin-4-yl)-N-(1-((1S,2R)-2-fluorocyclopropyl)-2-oxo-1,2-dihydropyridin-3-yl)-7-isopropoxyimidazo[1,2-a]pyrimidine-6-carboxamide] here?
A: Its DC50 is < 10 nM.

Q: Which DC50 does the source give for `CC(C)Oc1cc2nn([C@H]3CC[C@H](CN4CC[C@H](c5ccc(OC6CCC(=O)NC6=O)cc5)[C@@H](O)C4)CC3)cc2cc1C(=O)Nc1cccn([C@H]2C[C@H]2F)c1=O` (stereo partly drawn) [Example 187] here?
A: The DC50 was < 10 nM.

Q: How did the DC50 turn out when `CC(C)Oc1cc2nc(C3CCN(C(=O)CC4CCN(c5cnc(C6CCC(=O)NC6=O)cn5)CC4)CC3)cn2cc1C(=O)Nc1cccn([C@H]2C[C@H]2F)c1=O` (stereo partly drawn) [Example 189] was run?
A: The DC50 was < 10 nM.

Q: How did the DC50 turn out when `CC(C)Oc1cc2nc([C@H]3CC[C@H](CN4CC5(CCN(c6ncc(N7CCC(=O)NC7=O)cc6F)CC5)C4)CC3)cn2cc1C(=O)Nc1cccn(C2CC2)c1=O` [Example 190] was run?
A: Its DC50 is 10 to 100 nM.

Q: Which DC50 does the source give for `CO[C@H]1CN(C[C@H]2CC[C@H](c3cn4cc(C(=O)Nc5cccn([C@H]6C[C@H]6F)c5=O)c(OC(C)C)cc4n3)CC2)CC[C@H]1c1ccc2c(N3CCC(=O)NC3=O)nn(C)c2c1` [Example 191] here?
A: The DC50 was < 10 nM.

Q: With `CC(C)Oc1nc2nc([C@H]3CC[C@H](CN4CCC(c5ccc6c(c5)n(C)c(=O)n6C5CCC(=O)NC5=O)CC4)CC3)cn2cc1C(=O)Nc1cccn([C@H]2C[C@H]2F)c1=O` (stereo partly drawn) [Example 192] as the compound, how does the DC50 read?
A: The DC50 was < 10 nM.

Q: For `CC(C)Oc1nc2nc(C3CCN(C(=O)N(C)C4CCN(c5ncc(C6CCC(=O)NC6=O)cc5F)CC4)CC3)cn2cc1C(=O)Nc1cccn([C@H]2C[C@H]2F)c1=O` (stereo partly drawn) [Example 193], which DC50 is on record?
A: Its DC50 is 10 to 100 nM.

Q: Which DC50 does the source give for `CC(C)Oc1cc2nc([C@H]3CC[C@](F)(CN4CCC(c5ccc6c(c5)n(C)c(=O)n6C5CCC(=O)NC5=O)CC4)CC3)cn2cc1C(=O)Nc1cccn([C@H]2C[C@H]2F)c1=O` (stereo partly drawn) [Example 194] here?
A: The DC50 was 10 to 100 nM.

Q: Which DC50 does the source give for `CC(C)Oc1nc2nc(C3CCN(C(=O)N(C)C4CCN(c5ncc(C6CCC(=O)NC6=O)cc5F)CC4)CC3)cn2cc1C(=O)Nc1cccn(C2CC2)c1=O` (stereo not drawn) [Example 195] here?
A: The DC50 was 10 to 100 nM.

Q: How did the DC50 turn out when `CC(C)Oc1nc2nc(C3CCN(C(=O)CC4CC5(C4)CN(c4ccc(C6CCC(=O)NC6=O)cn4)C5)CC3)cn2cc1C(=O)Nc1cccn([C@H]2C[C@H]2F)c1=O` (stereo partly drawn) [Example 196] was run?
A: The DC50 was < 10 nM.

Q: How did the DC50 turn out when `CC(C)Oc1nc2nc(C3CCC(CN4CCC(c5cc6c(cc5F)c(N5CCC(=O)NC5=O)nn6C)CC4)CC3)cn2cc1C(=O)Nc1cccn([C@H]2C[C@H]2F)c1=O` (stereo partly drawn) [Example 197, 2-[4-[[4-[3-(2,4-dioxohexahydropyrimidin-1-yl)-5-fluoro-1-methyl-indazol-6-yl]-1-piperidyl]methyl]cyclohexyl]-N-[1-[(1S,2R)-2-fluorocyclopropyl]-2-oxo-3-pyridyl]-7-isopropoxy-imidazo[1,2-a]pyrimidine-6-carboxamide] was run?
A: The DC50 was < 10 nM.

Q: With `CC(C)Oc1cc2nn([C@H]3CC[C@H](CN4CCC(c5cc6c(cc5F)c(N5CCC(=O)NC5=O)nn6C)CC4)CC3)cc2cc1C(=O)Nc1cccn(C2CC2)c1=O` [Example 198, N-(1-cyclopropyl-2-oxo-1,2-dihydropyridin-3-yl)-2-((r,4r)-4-((4-(3-(2,4-dioxotetrahydropyrimidin-1(2H)-yl)-5-fluoro-1-methyl-1H-indazol-6-yl)piperidin-1-yl)methyl)cyclohexyl)-6-isopropoxy-2H-indazole-5-carboxamide] as the compound, how does the DC50 read?
A: The DC50 was < 10 nM.

Biological target: T2, IKZF1 (Homo sapiens, UniProt Q13422)
T2 construct: endogenously expressing IKZF1 with HiBiT fusion tag via CRISPR
T2 sequence (Q96SW2 whole entry partner, the tested form may be a part): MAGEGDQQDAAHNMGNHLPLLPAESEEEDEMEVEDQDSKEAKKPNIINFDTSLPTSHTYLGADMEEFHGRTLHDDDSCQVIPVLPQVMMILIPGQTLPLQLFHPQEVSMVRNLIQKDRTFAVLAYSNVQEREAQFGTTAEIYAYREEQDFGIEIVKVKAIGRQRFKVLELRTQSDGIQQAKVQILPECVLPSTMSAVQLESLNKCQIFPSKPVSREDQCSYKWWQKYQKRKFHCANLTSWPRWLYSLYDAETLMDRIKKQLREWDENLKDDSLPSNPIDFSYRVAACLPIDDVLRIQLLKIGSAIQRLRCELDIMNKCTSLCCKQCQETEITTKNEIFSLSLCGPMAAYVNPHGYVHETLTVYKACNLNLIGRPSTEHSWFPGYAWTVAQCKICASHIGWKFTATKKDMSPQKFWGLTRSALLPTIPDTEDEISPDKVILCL
T2 sequence (Q16531 whole entry partner, the tested form may be a part): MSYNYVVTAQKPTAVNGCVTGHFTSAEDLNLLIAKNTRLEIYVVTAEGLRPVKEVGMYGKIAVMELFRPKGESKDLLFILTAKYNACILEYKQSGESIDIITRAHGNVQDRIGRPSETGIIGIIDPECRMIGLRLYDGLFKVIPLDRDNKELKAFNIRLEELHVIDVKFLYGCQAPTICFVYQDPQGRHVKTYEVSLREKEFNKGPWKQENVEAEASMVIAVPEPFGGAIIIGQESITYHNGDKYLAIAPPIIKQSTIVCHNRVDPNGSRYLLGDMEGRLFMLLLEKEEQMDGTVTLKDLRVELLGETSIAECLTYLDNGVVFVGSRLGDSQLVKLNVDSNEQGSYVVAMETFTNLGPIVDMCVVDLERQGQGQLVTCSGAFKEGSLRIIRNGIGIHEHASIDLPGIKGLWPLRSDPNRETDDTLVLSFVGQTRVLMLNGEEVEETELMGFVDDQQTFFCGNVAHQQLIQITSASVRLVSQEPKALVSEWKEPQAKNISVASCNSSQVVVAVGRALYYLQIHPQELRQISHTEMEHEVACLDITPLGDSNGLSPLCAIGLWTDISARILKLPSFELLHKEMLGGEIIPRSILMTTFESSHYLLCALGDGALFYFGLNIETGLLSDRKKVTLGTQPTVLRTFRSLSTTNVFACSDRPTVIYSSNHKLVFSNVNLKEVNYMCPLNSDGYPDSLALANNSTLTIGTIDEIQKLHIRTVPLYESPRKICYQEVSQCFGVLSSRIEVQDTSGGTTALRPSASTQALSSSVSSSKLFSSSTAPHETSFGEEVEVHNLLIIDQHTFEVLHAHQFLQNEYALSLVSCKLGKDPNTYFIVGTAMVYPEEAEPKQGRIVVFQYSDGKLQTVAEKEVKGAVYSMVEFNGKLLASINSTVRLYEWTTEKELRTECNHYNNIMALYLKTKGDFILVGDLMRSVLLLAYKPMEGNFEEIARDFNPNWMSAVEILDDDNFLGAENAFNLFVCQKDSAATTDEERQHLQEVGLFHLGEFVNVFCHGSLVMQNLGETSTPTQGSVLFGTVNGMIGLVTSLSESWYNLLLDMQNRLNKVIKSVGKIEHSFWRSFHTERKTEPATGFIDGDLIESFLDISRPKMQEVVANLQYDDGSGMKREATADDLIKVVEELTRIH
T2 sequence (Q13422 whole entry, the tested form may be a part): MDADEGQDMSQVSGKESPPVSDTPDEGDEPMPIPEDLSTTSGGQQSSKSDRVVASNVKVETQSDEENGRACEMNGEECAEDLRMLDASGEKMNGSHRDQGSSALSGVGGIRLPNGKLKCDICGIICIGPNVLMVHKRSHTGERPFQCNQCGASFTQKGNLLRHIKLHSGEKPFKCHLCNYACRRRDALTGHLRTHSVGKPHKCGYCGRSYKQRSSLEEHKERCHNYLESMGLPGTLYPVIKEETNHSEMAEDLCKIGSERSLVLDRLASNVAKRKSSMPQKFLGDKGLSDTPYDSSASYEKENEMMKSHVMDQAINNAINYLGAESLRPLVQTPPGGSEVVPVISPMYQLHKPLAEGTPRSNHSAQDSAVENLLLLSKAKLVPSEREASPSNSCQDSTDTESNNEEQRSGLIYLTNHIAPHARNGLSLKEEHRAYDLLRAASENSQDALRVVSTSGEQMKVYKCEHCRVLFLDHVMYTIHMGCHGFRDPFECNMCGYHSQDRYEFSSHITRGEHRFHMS
Test: IKZF1 Degradation Assay, HiBiT Method
Assay type: cell-based
Conditions: NCIH929 cells expressing HiBiT-tagged IKZF1, 6 hours, top concentration 10 μM
Experimental: Assay 2. IKZF1 Degradation Assay, HiBiT Method
Selected compounds of this disclosure were tested in an IKZF1 degradation assay using the HiBiT Method.
RPMI no-phenol red medium and fetal bovine serum (FBS) were purchased from Gibco (Grand Island, NY, USA). Nano-Glo® HiBiT Lytic Assay System was purchased from Promega (Madison, WI, USA). […] Cell culture flasks and 384-well microplates were acquired from VWR (Radnor, PA, USA).
IKZF1 degradation was determined based on quantification of luminescent signal using Nano-Glo® HiBiT Lytic Assay kit. […] NCIH929 cells expressing HiBiT-tagged IKZF1 were added into 384-well plates in RPMI medium containing 10% FBS and 0.05 mM 2-mercaptoethanol at a cell density of 15000 cells per well. The plates were kept at 37° C. with 5% CO2 for 6 hours. Cells treated in the absence of the test compound were the negative control and wells containing media only were the positive control. After 6-hour incubation, Nano-Glo® HiBiT Lytic Assay reagents were added to the designated wells. Luminescence was acquired on EnVision® Multilabel Reader (PerkinElmer, Santa Clara, CA, USA).

Q: How did the DC50 turn out when `CC(C)Oc1cc2nn([C@H]3CC[C@H](CN4CCC(c5ccc(O[C@H]6CCC(=O)NC6=O)cc5)CC4)CC3)cc2cc1C(=O)Nc1cccn(C2CC2)c1=O` (single isomer, unassigned) [Example 142] was run?
A: Its DC50 is > 10000 nM.

Q: `CC(C)Oc1cc2nc([C@H]3CC[C@H](CN4CCC(c5ccc(C6CCC(=O)NC6=O)cc5F)CC4)CC3)cn2cc1C(=O)Nc1cccc(C(F)F)n1` (stereo partly drawn) [Example 23, N-[6-(difluoromethyl)-2-pyridyl]-2-[4-[[4-[4-(2,6-dioxo-3-piperidyl)-2-fluoro-phenyl]-1-piperidyl]methyl]cyclohexyl]-7-isopropoxy-imidazo[1,2-a]pyridine-6-carboxamide] was tested. Which DC50 did it give?
A: The DC50 was > 10000 nM.

Same assay, conditions: NCIH929.11 cells, 6 hours

Q: How did the “degradation of IKZF1” value turn out when `Nc1cccc2c1C(=O)N(C1CCC(=O)NC1=O)C2=O` (stereo not drawn) [pomalidomide, reference compound] was run?
A: The value was 90%.
